Measured values reported in patent US7750003B2, “Compounds-943” (AstraZeneca AB, priority 2006, dated 2010).

Biological target: recombinant mTOR (FLAG-tagged, residues 1362-2549) (Homo sapiens, UniProt P42345)
Assay: In vitro mTOR kinase assay (Test (a), AlphaScreen)
Type: biochemical
Conditions: ATP 20 μM, read-out: Test (a): IC50 versus mTOR kinase
In short: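 AlphaScreen read-out: a phospho-T389 p70 S6K antibody on acceptor beads captures the phosphorylated biotin-peptide on donor beads, with signal loss indicating inhibition.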

Chain of recombinant mTOR (FLAG-tagged, residues 1362-2549) (P42345 1362-2549): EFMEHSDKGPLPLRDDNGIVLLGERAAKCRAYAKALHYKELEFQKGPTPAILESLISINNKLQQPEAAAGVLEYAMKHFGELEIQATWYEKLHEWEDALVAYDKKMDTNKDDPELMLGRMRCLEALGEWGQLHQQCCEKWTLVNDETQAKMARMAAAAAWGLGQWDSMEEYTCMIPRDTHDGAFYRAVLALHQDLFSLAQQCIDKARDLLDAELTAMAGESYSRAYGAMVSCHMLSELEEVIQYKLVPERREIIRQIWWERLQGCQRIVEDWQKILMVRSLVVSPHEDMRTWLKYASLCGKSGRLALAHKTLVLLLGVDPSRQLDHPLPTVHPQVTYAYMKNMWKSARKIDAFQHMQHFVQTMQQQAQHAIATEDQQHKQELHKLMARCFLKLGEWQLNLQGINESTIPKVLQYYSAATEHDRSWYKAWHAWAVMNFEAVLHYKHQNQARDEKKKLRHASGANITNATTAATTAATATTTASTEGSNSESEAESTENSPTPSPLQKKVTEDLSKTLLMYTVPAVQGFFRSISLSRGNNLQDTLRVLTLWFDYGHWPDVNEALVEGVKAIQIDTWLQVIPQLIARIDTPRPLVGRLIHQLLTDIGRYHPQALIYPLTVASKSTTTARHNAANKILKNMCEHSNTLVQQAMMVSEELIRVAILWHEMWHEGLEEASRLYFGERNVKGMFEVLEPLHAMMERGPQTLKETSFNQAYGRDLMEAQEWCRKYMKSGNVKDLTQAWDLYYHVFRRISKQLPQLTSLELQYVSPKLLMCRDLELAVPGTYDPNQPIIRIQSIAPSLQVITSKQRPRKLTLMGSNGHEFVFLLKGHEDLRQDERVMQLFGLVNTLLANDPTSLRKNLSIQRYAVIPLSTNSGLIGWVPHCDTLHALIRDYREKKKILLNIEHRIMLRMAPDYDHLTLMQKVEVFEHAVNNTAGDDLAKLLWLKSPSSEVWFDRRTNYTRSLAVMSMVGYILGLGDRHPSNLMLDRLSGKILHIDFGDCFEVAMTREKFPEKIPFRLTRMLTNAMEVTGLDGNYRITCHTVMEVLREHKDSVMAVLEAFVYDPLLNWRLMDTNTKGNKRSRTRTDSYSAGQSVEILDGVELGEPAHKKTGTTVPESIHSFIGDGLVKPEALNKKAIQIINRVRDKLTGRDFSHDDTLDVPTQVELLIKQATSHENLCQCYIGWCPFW

Row | SMILES | IC50 [nM]
1 | CCNC(=O)NC1CCN(c2nc(N3CCOC[C@@H]3C)cc(C(C)(C)S(C)(=O)=O)n2)CC1 [Example 24o, 1-ethyl-3-[1-[4-[(3S)-3-methylmorpholin-4-yl]-6-(2-methylsulfonylpropan-2-yl)pyrimidin-2-yl]-4-piperidyl]urea] | 3400
2 | C[C@H]1COCCN1c1cc(CS(C)(=O)=O)nc(-c2ccc(NC(=O)NCc3ncc[nH]3)cc2)n1 [Example 35l, 3-(1H-imidazol-2-ylmethyl)-1-[4-[4-[(3S)-3-methylmorpholin-4-yl]-6-(methylsulfonylmethyl)pyrimidin-2-yl]phenyl]urea] | 470
3 | COCCNC(=O)Nc1ccc(-c2nc(CS(=O)(=O)C(C)C)cc(N3CCOCC3)n2)cc1 [Example 20p, 3-(2-methoxyethyl)-1-[4-[4-morpholin-4-yl-6-(propan-2-ylsulfonylmethyl)pyrimidin-2-yl]phenyl]urea] | 910
4 | C[C@H]1COCCN1c1cc(COC2CCN(C)CC2)nc(-c2ccc(NC(=O)Nc3ccccc3)cc2)n1 [Example 31, 1-[4-[4-[(3S)-3-Methylmorpholin-4-yl]-6-[(1-methyl-4-piperidyl)oxymethyl]pyrimidin-2-yl]phenyl]-3-phenyl-urea] | 350
5 | CNC(=O)Nc1ccc(-c2nc(CS(=O)(=O)C3CCCCC3)cc(N3CCOC[C@@H]3C)n2)cc1 [Example 19, 1-[4-[4-(Cyclohexylsulfonylmethyl)-6-[(3S)-3-methylmorpholin-4-yl]pyrimidin-2-yl]phenyl]-3-methyl-urea] | 250
6 | CS(=O)(=O)Cc1cc(N2CCOCC2)nc(-c2ccc(NC(=O)Nc3ccc(C(F)(F)F)cc3)cc2)n1 [Example 7c, 1-[4-[4-(methylsulfonylmethyl)-6-morpholin-4-yl-pyrimidin-2-yl]phenyl]-3-[4-(trifluoromethyl)phenyl]urea] | 1700
7 | C[C@H]1COCCN1c1cc(CS(C)(=O)=O)nc(-n2ccc(NC(=O)Nc3ccc(F)cc3)n2)n1 [Example 25b, 3-(4-fluorophenyl)-1-[1-[4-[(3S)-3-methylmorpholin-4-yl]-6-(methylsulfonylmethyl)pyrimidin-2-yl]pyrazol-3-yl]urea] | 4400
8 | CNC(=O)NC1CCN(c2nc(N3CCOC[C@@H]3C)cc(C(C)(C)S(C)(=O)=O)n2)CC1 [Example 24n, 3-methyl-1-[1-[4-[(3S)-3-methylmorpholin-4-yl]-6-(2-methylsulfonylpropan-2-yl)pyrimidin-2-yl]-4-piperidyl]urea] | 3200
9 | CCNC(=O)Nc1ccc(-c2nc(CS(=O)(=O)c3ccccn3)cc(N3CCOC[C@@H]3C)n2)cc1 [Example 71, 3-Ethyl-1-[4-[4-[(3S)-3-methylmorpholin-4-yl]-6-(pyridin-2-ylsulfonylmethyl)pyrimidin-2-yl]phenyl]urea] | 32
10 | COCc1cc(N2CCOC[C@@H]2C)nc(-c2ccc(NC(=O)Nc3ccccc3)cc2)n1 [Example 32, 1-[4-[4-(Methoxymethyl)-6-[(3S)-3-methylmorpholin-4-yl]pyrimidin-2-yl]phenyl]-3-phenyl-urea] | 6.2
11 | CS(=O)(=O)Cc1cc(N2CCOCC2)nc(-c2ccc(NC(=O)NC3CCOCC3)cc2)n1 [Example 45u, 1-[4-[4-(methylsulfonylmethyl)-6-morpholin-4-yl-pyrimidin-2-yl]phenyl]-3-(oxan-4-yl)urea] | 420
12 | CCNC(=O)Nc1ncc(-c2nc(CS(C)(=O)=O)cc(N3CCOC[C@@H]3C)n2)s1 [Example 46b, 1-ethyl-3-[5-[4-[(3S)-3-methylmorpholin-4-yl]-6-(methylsulfonylmethyl)pyrimidin-2-yl]-1,3-thiazol-2-yl]urea] | 6.1
13 | COCCN(C)C(=O)Nc1ccc(-c2nc(CS(C)(=O)=O)cc(N3CCOC[C@@H]3C)n2)cc1 [Example 2a, 1-(2-methoxyethyl)-1-methyl-3-[4-[4-[(3S)-3-methylmorpholin-4-yl]-6-(methylsulfonylmethyl)pyrimidin-2-yl]phenyl]urea] | 2300

More lines, in order of falling IC50, values ahead:

Row | IC50 [nM] | SMILES
14 | 2200 | CN(C)CCN(C)C(=O)Nc1ccc(-c2nc(CS(C)(=O)=O)cc(N3CCOCC3)n2)cc1 [Example 8c, 1-(2-dimethylaminoethyl)-1-methyl-3-[4-[4-(methylsulfonylmethyl)-6-morpholin-4-yl-pyrimidin-2-yl]phenyl]urea]
15 | 1500 | Cc1nn(C)c(C)c1NC(=O)Nc1ccc(-c2nc(CS(C)(=O)=O)cc(N3CCOC[C@@H]3C)n2)cc1 [Example 22h, 3-[4-[4-[(3S)-3-methylmorpholin-4-yl]-6-(methylsulfonylmethyl)pyrimidin-2-yl]phenyl]-1-(1,3,5-trimethylpyrazol-4-yl)urea]
16 | 1100 | C[C@H]1COCCN1C(=O)Nc1ccc(-c2nc(CS(C)(=O)=O)cc(N3CCOC[C@@H]3C)n2)cc1 [Example 35n, (3S)-3-methyl-N-[4-[4-[(3S)-3-methylmorpholin-4-yl]-6-(methylsulfonylmethyl)pyrimidin-2-yl]phenyl]morpholine-4-carboxamide]
17 | 550 | COc1ccc(NC(=O)Nc2ccc(-c3nc(CS(C)(=O)=O)cc(N4CCOC[C@@H]4C)n3)cc2OC)cc1 [Example 1i, 3-[2-methoxy-4-[4-[(3S)-3-methylmorpholin-4-yl]-6-(methylsulfonylmethyl)pyrimidin-2-yl]phenyl]-1-(4-methoxyphenyl)urea]
18 | 440 | C[C@H]1COCCN1c1cc(CS(C)(=O)=O)nc(-c2ccc(NC(=O)Nc3ccccc3)c(Cl)c2)n1 [Example 3b, 1-[2-Chloro-4-[4-[(3S)-3-methylmorpholin-4-yl]-6-(methylsulfonylmethyl)pyrimidin-2-yl]phenyl]-3-phenyl-urea]
19 | 210 | CS(=O)(=O)Cc1cc(N2CCOCC2)nc(-c2ccc(NC(N)=O)cc2)n1 [Example 34, [4-[4-(Methylsulfonylmethyl)-6-morpholin-4-yl-pyrimidin-2-yl]phenyl]urea]
20 | 190 | CS(=O)(=O)Cc1cc(N2CCOCC2)nc(-c2ccc(NC(=O)Nc3cccs3)cc2)n1 [Example 7r, 1-[4-[4-(methylsulfonylmethyl)-6-morpholin-4-yl-pyrimidin-2-yl]phenyl]-3-thiophen-2-yl-urea]
21 | 140 | CS(=O)(=O)Cc1cc(N2CCOCC2)nc(-c2ccc(NC(=O)N3CCC(O)CC3)cc2)n1 [Example 45h, 4-hydroxy-N-[4-[4-(methylsulfonylmethyl)-6-morpholin-4-yl-pyrimidin-2-yl]phenyl]piperidine-1-carboxamide]
22 | 76 | C[C@H]1COCCN1c1cc(CS(=O)(=O)c2ccncc2)nc(-c2ccc(NC(=O)NC3CC3)cc2)n1 [Example 43, 3-Cyclopropyl-1-[4-[4-[(3S)-3-methylmorpholin-4-yl]-6-(pyridin-4-ylsulfonylmethyl)pyrimidin-2-yl]phenyl]urea]
23 | 75 | C[C@H]1COCCN1c1cc(CO)nc(-c2ccc(NC(=O)Nc3ccon3)cc2)n1 [Example 39, 1-[4-[4-(Hydroxymethyl)-6-[(3S)-3-methylmorpholin-4-yl]pyrimidin-2-yl]phenyl]-3-(1,2-oxazol-3-yl)urea]
24 | 55 | C[C@H]1COCCN1c1cc(C(C)(C)S(C)(=O)=O)nc(-c2ccc(NC(=O)Nc3cc[nH]n3)cc2)n1 [Example 24v, 1-[4-[4-[(3S)-3-methylmorpholin-4-yl]-6-(2-methylsulfonylpropan-2-yl)pyrimidin-2-yl]phenyl]-3-(1H-pyrazol-3-yl)urea]
25 | 16 | C[C@H]1COCCN1c1cc(CNC(C)(C)CO)nc(-c2ccc(NC(=O)NC3CC3)cc2)n1 [Example 49i, 3-cyclopropyl-1-[4-[4-[[(1-hydroxy-2-methyl-propan-2-yl)amino]methyl]-6-[(3S)-3-methylmorpholin-4-yl]pyrimidin-2-yl]phenyl]urea]
26 | 12 | CNC(=O)Nc1ncc(-c2nc(N3CCOC[C@@H]3C)cc(C(C)(C)S(C)(=O)=O)n2)cn1 [Example 24bh, 3-methyl-1-[5-[4-[(3S)-3-methylmorpholin-4-yl]-6-(2-methylsulfonylpropan-2-yl)pyrimidin-2-yl]pyrimidin-2-yl]urea]
